This is an account of results in ChEMBL document CHEMBL1122711, “Design, synthesis, and testing of potential antisickling agents. 4. Structure-activity relationships of benzyloxy and phenoxy acids” (J Med Chem, 1984).

The conditions of data set [1]: human, 10000 µM.
The conditions of data set [2]: human, 5000 µM.
Description: Solubility ratio ([HbS+drug (5 mM)]/[HbS-drug])
The conditions of data set [3]: human, 40000 µM.
Description: Solubility ratio ([HbS+drug (40 mM)]/[HbS-drug])
The conditions of data set [4]: human, 20000 µM.
Description: Solubility ratio ([HbS+drug (20 mM)]/[HbS-drug]

Consider `CN(C)c1ccc(OCC(=O)O)cc1.Cl`, for which the Solubility ratio was 1.044 in data set [1], 1.022 in data set [2], 1.057 in data set [3] and 1.011 in data set [4].
Turning to `O=C(O)CSc1c(F)c(F)c(F)c(F)c1F`, the Solubility ratio was 1.053 in data set [1], 1.025 in data set [2], 1.236 in data set [3] and 1.117 in data set [4].
The matching figures for `O=C(O)CSc1ccc(Br)cc1`: 1.063, 1.023, 1.261 and 1.113.
On to `O=C(O)COCc1ccc(Br)cc1`, for which the Solubility ratio in data set [1] is 1.118; in data set [2], 1.059; in data set [3] it was 1.398; in data set [4], 1.233.
The matching figures for `Cc1cc(C)c(COCC(=O)O)c(C)c1`: 1.054, 1.031, 1.31 and 1.163.
For `O=C(O)CSCc1ccc(Br)cc1`, the Solubility ratio turned out to be 1.053 in data set [1], 1.024 in data set [2], 1.307 in data set [3] and 1.131 in data set [4].
Turning to `O=C(O)CSc1ccc(Cl)cc1`, the Solubility ratio was 1.069 in data set [1], 1.026 in data set [2], 1.296 in data set [3] and 1.168 in data set [4].
For `Cc1ccc(OCC(=O)O)c(Br)c1`, the Solubility ratio is 1.035 in data set [1], 1.031 in data set [2], 1.189 in data set [3] and 1.102 in data set [4].
Consider `Cc1cc(OCC(=O)O)ccc1Cl`, for which the Solubility ratio is given as 1.08 in data set [1], 1.05 in data set [2], 1.275 in data set [3] and 1.171 in data set [4].
For `O=C(O)C(CCOc1ccc(Br)cc1)C(=O)O`, the Solubility ratio was found to be 1.134 in data set [1], 1.057 in data set [2], 1.36 in data set [3] and 1.323 in data set [4].
In the same order, the values of `COc1cc(OCC(=O)O)cc(OC)c1OC` are 1.013, 0.987, 1.047 and 1.015.
Consider `CC(C)(OCc1ccc(Br)cc1)C(=O)O`, for which the Solubility ratio is 1.086 in data set [1], 1.048 in data set [2], 1.379 in data set [3] and 1.193 in data set [4].
In the same order, the values of `COc1cc(OC)cc(OCC(=O)O)c1` are 1.052, 1.03, 1.232 and 1.12.
The matching figures for `O=C(O)COc1ccc(I)cc1`: 1.046, 1.04, 1.176 and 1.09.
In the same order, the values of `Cc1ccc(COCC(=O)O)cc1C` are 1.086, 1.06, 1.289 and 1.142.
Take `Cc1ccc(COCC(=O)O)c(C)c1`: the Solubility ratio was 1.054 in data set [1], 1.05 in data set [2], 1.325 in data set [3] and 1.163 in data set [4].
The matching figures for `N[C@@H](Cc1ccccc1)C(=O)O` [PHENYLALANINE]: 1.048, 1.036, 1.178 and 1.093.
In the same order, the values of `Cc1cc(C)cc(COCC(=O)O)c1` are 1.031, 1.01, 1.315 and 1.129.
In the same order, the values of `Cc1ccc(C)c(OCCCC(C)(C)C(=O)O)c1` [GEMFIBROZIL] are 1.073, 1.04, 1.234 and 1.117.
As to `O=C(O)COc1ccc2c(c1)oc1ccccc12`, the Solubility ratio was determined as 1.054 in data set [1], 1.033 in data set [2], 1.185 in data set [3] and 1.09 in data set [4].
In the same order, the values of `O=C(O)COCc1ccc(Cl)c(Cl)c1` are 1.162, 1.083, 1.32 and 1.309.
The matching figures for `Nc1ccc(CSCC(=O)O)cc1`: 1.031, 1.006, 1.174 and 1.076.
The matching figures for `O=C(O)COc1cccc(Cl)c1Cl`: 1.057, 1.025, 1.135 and 1.09.
In the case of `Cc1cc(C)c(C)c(OCC(=O)O)c1`, the Solubility ratio in data set [1] amounted to 1.086; in data set [2], 1.035; in data set [3], 1.351; in data set [4], 1.18.
With `CC(C)(C)c1ccc(OCC(=O)O)cc1`, the Solubility ratio is listed as 1.012 in data set [1], 1.004 in data set [2] and 1.058 in data set [4].
Turning to `O=C(O)CCOCc1ccc(Cl)c(Cl)c1`, the Solubility ratio came to 1.142 in data set [1], 1.062 in data set [2], 1.395 in data set [3] and 1.305 in data set [4].
The matching figures for `CC(C)(Oc1ccc(CCNC(=O)c2ccc(Cl)cc2)cc1)C(=O)O` [BEZAFIBRATE]: 0.932, 0.954, 1.198 and 0.981.
On to `O=C(O)COc1ccc2c(c1)Cc1ccccc1-2`, for which the Solubility ratio in data set [1] came out at 1.042; in data set [2] it was 1.029; in data set [3], 1.113; in data set [4] it was 1.067.
In the case of `CC(C)(Oc1ccc(Cl)cc1)C(=O)O` [CLOFIBRIC ACID], the Solubility ratio amounted to 1.064 in data set [1], 1.018 in data set [2], 1.302 in data set [3] and 1.155 in data set [4].
As for `O=C(O)COc1ccc([N+](=O)[O-])cc1`, the Solubility ratio was 1.043 in data set [1], 0.983 in data set [2], 1.344 in data set [3] and 1.329 in data set [4].
Regarding `Cc1cc(Br)c(OCC(=O)O)c(Br)c1`, the Solubility ratio amounted to 1.043 in data set [1], 1.077 in data set [2], 1.284 in data set [3] and 1.139 in data set [4].
The matching figures for `Cc1cc(OCC(=O)O)cc(C)c1Cl`: 1.054, 1.033, 1.216 and 1.124.
As to `CSc1ccc(OCC(=O)O)cc1`, the Solubility ratio in data set [1] came out at 1.027; in data set [2] it was 1.035; in data set [3], 1.223; in data set [4] it was 1.16.
`O=C(O)COc1ccc(Cl)c(Cl)c1`: the Solubility ratio in data set [1] was found to be 1.117; in data set [2], 1.061; in data set [3], 1.339; in data set [4] it was 1.234.
In the same order, the values of `O=C(O)C(CCc1ccccc1)C(=O)O` are 1.058, 1.007, 1.263 and 1.101.
On to `O=C(O)COc1ccc(Br)cc1`, for which the Solubility ratio in data set [1] is given as 1.093; in data set [2] it was 1.049; in data set [3] it was 1.317; in data set [4], 1.18.
On to `O=C(O)COc1ccc2c(c1)CCC2`, for which the Solubility ratio in data set [1] came out at 1.134; in data set [2] it was 1.054; in data set [3], 1.322; in data set [4], 1.247.
As to `Cc1ccc(C)c(OCC(=O)O)c1`, the Solubility ratio in data set [1] came out at 1.055; in data set [2], 1.031; in data set [3] it was 1.248; in data set [4], 1.114.
`COc1cc(COCC(=O)O)ccc1C`: the Solubility ratio was 1.081 in data set [1], 1.034 in data set [2], 1.248 in data set [3] and 1.145 in data set [4].
The matching figures for `O=C(O)COc1ccc(Cl)cc1`: 1.08, 1.04, 1.287 and 1.163.
As to `Cc1cc(OCC(=O)O)cc(C)c1Br`, the Solubility ratio in data set [1] amounted to 1.004; in data set [2], 0.996; in data set [3], 1.092; in data set [4] it was 1.063.
In the same order, the values of `O=C(O)COC(c1ccccc1)c1ccc(Cl)cc1` (centres undefined) are 1.032, 1.002, 1.25 and 1.103.
The matching figures for `O=C(O)COCc1ccc(Cl)cc1`: 1.104, 1.065, 1.396 and 1.206.
The matching figures for `O=C(O)COc1ccc(Cl)cc1Cl` [2,4-DICHLOROPHENOXYACETIC ACID]: 1.083, 1.049, 1.313 and 1.151.
Consider `O=C(O)CSc1cc(Cl)c(Cl)cc1Cl`, for which the Solubility ratio in data set [1] was 1.032; in data set [2], 1.018; in data set [3] it was 1.12; in data set [4] it was 1.07.
